Measured values taken from ChEMBL document CHEMBL2095176, “GSK Tuberculosis Screening Data”.
In brackets after ≈: the same amount, converted by molar mass.

What follows are compounds tested on Mycobacterium tuberculosis variant bovis BCG (assay: microbe, parasite or virus in culture).
Assay type: functional

| Structure (SMILES) | MIC90 [µM] |
| --- | --- |
| O=C(Nc1nnc(SCc2ccc(F)cc2)s1)c1ccccn1 | 4.6 (≈ 1.59 µg/mL) |
| c1csc(-c2nnc(Sc3ccnc(N4CCN(c5ccncc5)CC4)n3)n2CCCN2CCOCC2)c1 | 5.4 (≈ 2.97 µg/mL) |
| c1ccc(-c2csc(Nc3nc4cc5c(cc4s3)OCO5)n2)nc1 | 1.5 (≈ 0.532 µg/mL) |
| COc1cc(Cc2cnc(N)nc2N)c2cnccc2c1N(C)C | 6.4 (≈ 2.08 µg/mL) |
| NC(=O)C(N)Cc1c[nH]c2ccc(F)cc12 (stereo not drawn) | 2.3 (≈ 0.509 µg/mL) |
| Fc1ccc(F)c(-c2noc(CC3CCN(Cc4ccsc4)C3)n2)c1 (stereo not drawn) | 3.5 (≈ 1.26 µg/mL) |
| O=C(CNc1ccccc1Nc1ccccc1)N1CCCC1 | 8.2 (≈ 2.42 µg/mL) |
| Brc1cncc(-c2cc(NCCCn3ccnc3)nc(-c3ccccc3)n2)c1 | 7.6 (≈ 3.31 µg/mL) |
| O=C(Nc1nnc(-c2ccc(Cl)cc2)o1)c1ccc(Cl)cc1 | 2.8 (≈ 0.936 µg/mL) |
| CCOc1ccc(CC(=O)Nc2cc(C)nn2-c2nc(C)c(CC)c(=O)[nH]2)cc1 | 3.3 (≈ 1.31 µg/mL) |
| Cc1ccc(SCCNC(=O)c2c(-c3ccccc3)noc2C)cc1 | 8.7 (≈ 3.07 µg/mL) |
| CCOc1ccccc1NC(=O)C(Cc1ccccc1)NC(=O)c1cccs1 (stereo not drawn) | 9 (≈ 3.55 µg/mL) |
| COc1ccc(-c2ccc(Nc3cccc(S(=O)(=O)CCN(C)Cc4ccccc4)c3)nc2)cn1 | 7.4 (≈ 3.62 µg/mL) |
| CCc1ccc(C2CC(C(F)(F)F)n3ncc(C(=O)NCc4cccs4)c3N2)cc1 (stereo not drawn) | 8.8 (≈ 3.82 µg/mL) |
| O=C(NNC(=O)c1cccs1)c1ccc(-c2cccc(C(F)(F)F)c2)o1 | 4.3 (≈ 1.64 µg/mL) |
| O=C(CSc1nnc(Nc2ccccc2)s1)NNC(=O)c1cccs1 | 8.2 (≈ 3.21 µg/mL) |
| CSc1ccc(-c2nnc(NC(=O)c3cccc(F)c3)o2)cc1 | 3.9 (≈ 1.28 µg/mL) |
| CCOC(=O)c1cc(-c2csc(Nc3c(C)cc(C)cc3C)n2)on1 | 7.7 (≈ 2.75 µg/mL) |
| CSc1ccc(C(=O)Nc2nnc(-c3ccc4c(c3)CCCC4)o2)cc1 | 7 (≈ 2.56 µg/mL) |
| Cn1cc(C(=O)NCCc2ccccc2)c(=O)c2cc(S(=O)(=O)N3CCCC3)ccc21 | 4.6 (≈ 2.02 µg/mL) |
| Br.CCCc1cc(C(C)=O)ccc1OCCCON1C(=N)N=C(N)NC1(C)C | 8.8 |

| Structure (SMILES) | MIC90 [µM] |
| --- | --- |
| Cc1ccc(NC(=O)c2cccc(Cl)c2F)cc1-c1ccc(C(N)=O)cc1 | 9.5 (≈ 3.64 µg/mL) |
| Cc1cccc(CC(=N)NCCOc2cccc(Cl)c2)c1 | 5.5 (≈ 1.67 µg/mL) |
| O=C(NC1CCN(Cc2ccsc2)C1)c1sccc1-c1cccc(F)c1 (stereo not drawn) | 7.3 (≈ 2.82 µg/mL) |
| Clc1cc(N2CCN(c3ccncc3)CC2)ncn1 | 5.1 (≈ 1.41 µg/mL) |
| Cc1ncc(C(=O)Nc2cccc(-c3cc(-c4c(Cl)cccc4Cl)no3)c2)c(-c2ccccc2)n1 | 1.2 (≈ 0.602 µg/mL) |
| COc1ccc(CNC(=O)c2cnn3c2NC(c2ccc(OC)cc2)CC3C(F)(F)F)cc1 (stereo not drawn) | 9.1 (≈ 4.19 µg/mL) |
| Clc1ccc(CCNc2cc(-c3ccccc3)nc3ncnn23)cc1 | 4 (≈ 1.4 µg/mL) |
| COc1ccc(-c2nc(-c3cccc(NC(=O)Cc4ccc(F)cc4)c3)no2)cc1OC | 2.3 (≈ 0.997 µg/mL) |
| Fc1ccc2nc(Nc3nc(-c4ccccn4)cs3)sc2c1 | 1 (≈ 0.328 µg/mL) |
| CN1CCC(COC(=O)c2cn(C)c3ccc(Cl)cc23)CC1 | 8.7 (≈ 2.79 µg/mL) |
| O=C(N[C@@H](Cc1ccccc1)C(=O)Nc1ccccc1N1CCOCC1)c1cccs1 | 3.2 (≈ 1.39 µg/mL) |
| Cc1ccc(OCC(=O)Nc2cc(C)nn2-c2nc(C)cc(O)n2)cc1 | 3.6 (≈ 1.27 µg/mL) |
| CC(c1nc2ccccc2s1)N(C)C(=O)c1ccc2c(c1)CC(c1ccccc1)OC2=O (stereo not drawn) | 1.6 (≈ 0.708 µg/mL) |
| C=CCNc1nc(SC)nc2ccccc12 | 4.4 (≈ 1.02 µg/mL) |
| CS(=O)(=O)c1cccc(C(=O)Nc2nc(-c3ccccn3)cs2)c1 | 3.3 (≈ 1.19 µg/mL) |
| COc1ccccc1NC(=O)CN(Cc1ccco1)C(=O)c1cccc(NC(=O)c2cccs2)c1 | 0.4 (≈ 0.196 µg/mL) |
| CCOc1ccc(NC(=O)N(C2CCCCC2)C(C)c2cccnc2)cc1 (stereo not drawn) | 7.2 (≈ 2.65 µg/mL) |
| Cc1ccc(C2(c3ccc(C)cc3)NC(=O)N(CC(=O)N3CCC(Cc4ccccc4)CC3)C2=O)cc1 | 6.2 (≈ 3.07 µg/mL) |
| Cn1nc(C(=O)N2CCc3sccc3C2c2ccccc2)c2ccccc2c1=O (stereo not drawn) | 2 (≈ 0.803 µg/mL) |
| CC(=O)CCN1C(=O)C(=O)c2cc(Br)ccc21 | 7.9 (≈ 2.34 µg/mL) |
| CC(C)c1ccc(-c2cncc(N3CCN(c4ccncc4)CC3)n2)cc1 | 5.1 (≈ 1.83 µg/mL) |

| Structure (SMILES) | MIC90 [µM] |
| --- | --- |
| O=C(O)C(F)(F)F.c1ccc(C[C@H]2CN(c3nccc(Oc4ccc(-n5ccnc5)cc4)n3)CCN2)cc1 | 8.2 |
| Cc1cc(C)c2nc3c(cc2c1)CN(Cc1ccco1)C(=O)O3 | 9 (≈ 2.78 µg/mL) |
| Nc1cccnc1Nc1ccc(Cl)cc1 | 1.1 (≈ 0.242 µg/mL) |
| O=C(Nc1ccc(C(F)(F)F)cc1)OCC1CCCN2CCCCC12 (stereo not drawn) | 6.9 (≈ 2.46 µg/mL) |
| O=C(CSc1ccc(Cl)cc1)NNC(=O)c1cccs1 | 4.8 (≈ 1.57 µg/mL) |
| O=C(CCC1CCCCC1)Nc1cccc(-c2nnc(-c3ccco3)o2)c1 | 9.2 (≈ 3.36 µg/mL) |
| COc1ccc(-c2cc(=O)c3cc(OCC(=O)OC(C)C)ccc3o2)cc1 | 6.2 (≈ 2.28 µg/mL) |
| COc1ccc(-c2cc(C(=O)NC3CCCCNC3=O)n3nc(C(C)(C)C)cc3n2)cc1 (stereo not drawn) | 3.7 (≈ 1.61 µg/mL) |
| Clc1ccc(-c2nnc3sc(Cc4cccs4)nn23)cc1 | 7.5 (≈ 2.5 µg/mL) |
| COc1ccc(CC(=O)Nc2c(-c3cccs3)nc3cc(C)ccn23)cc1 | 9.2 (≈ 3.47 µg/mL) |
| O=C(C=Cc1ccco1)N1CCN(Cc2ccc3c(c2)OCO3)CC1 | 7 (≈ 2.38 µg/mL) |
| CCCOC(=O)COc1ccc2c(=O)c(-c3ccccc3OC)coc2c1 | 9.8 (≈ 3.61 µg/mL) |
| COc1cc(C(C)(C)C)ccc1C(=O)Nc1cccc2c1CCC2N (stereo not drawn) | 2.7 (≈ 0.914 µg/mL) |
| O=C(NC12CC3CC(CC(C3)C1)C2)c1cc2ccccc2[nH]1 | 2.5 (≈ 0.736 µg/mL) |
| FC(F)(F)c1nnc2ccc(Cl)nn12 | 6.6 (≈ 1.47 µg/mL) |
| CNc1nc(SCC(=O)N(C)Cc2ccc(Cl)s2)nc2ccccc12 | 8.9 (≈ 3.5 µg/mL) |
| O=C(NNC(=O)c1cccs1)c1csc(COc2ccccc2Cl)n1 | 5.3 (≈ 2.09 µg/mL) |
| Cc1cc(C)c(C)c(OCCCCNCc2ccco2)c1 | 7.8 (≈ 2.24 µg/mL) |
| Brc1c(-c2ccc3c(c2)OCO3)nc2ncccn12 | 2.4 (≈ 0.764 µg/mL) |
| Nc1ccccc1Nc1ccc2c(c1)OCO2 | 1.7 (≈ 0.388 µg/mL) |
| Fc1ccccc1-c1noc(N2CCN(Cc3ccc4c(c3)OCO4)CC2)n1 | 6.7 (≈ 2.56 µg/mL) |

| Structure (SMILES) | MIC90 [µM] |
| --- | --- |
| O=C(NCc1ccc(Oc2ccccc2)cc1)c1c(C(F)(F)F)nc2ccccn12 | 0.2 (≈ 0.0823 µg/mL) |
| CSc1ccc(-c2nnc(NC(=O)c3cc(Cl)sc3Cl)o2)cc1 | 9.4 (≈ 3.63 µg/mL) |
| CC1CCCC(NC(=O)Nc2ccc3snnc3c2)C1C (stereo not drawn) | 3.1 (≈ 0.944 µg/mL) |
| Cc1cccc(Cn2ccc(NC(=O)c3ccc4c(c3)OCO4)n2)c1 | 8.2 (≈ 2.75 µg/mL) |
| CCC(C)CC(=O)Nc1nc2c(s1)C(=O)CC(C(=O)N(C)Cc1cccc3ncccc13)C2 (stereo not drawn) | 0.3 (≈ 0.139 µg/mL) |
| Cc1ccc(N2CCN(CCOc3cccc(-c4ccc(C(=O)N5CCCC5)cc4)c3)CC2)cc1C | 2.4 (≈ 1.16 µg/mL) |
| c1ccc(-c2nc(NC3CCCCC3)cc(C3CC3)n2)nc1 | 3.7 (≈ 1.09 µg/mL) |
| O=C(Nc1nnc(-c2ccc3c(c2)CCCC3)o1)c1ccc(Br)s1 | 4.3 (≈ 1.74 µg/mL) |
| O=C(CSc1nnc(-c2ccccc2)o1)Nc1nc(-c2ccccn2)cs1 | 6.6 (≈ 2.61 µg/mL) |
| CCc1cc(=O)[nH]c(-n2nc(C)cc2NC(=O)c2cc3ccccc3o2)n1 | 3.8 (≈ 1.38 µg/mL) |
| Clc1ccc(Nc2nc(-c3ccccn3)cs2)nc1 | 1.2 (≈ 0.347 µg/mL) |
| CSc1ccccc1C(=O)Nc1nc(-c2ccccn2)cs1 | 3.8 (≈ 1.24 µg/mL) |
| COc1cc(-c2ccccc2)c(Cl)cc1C(=O)Nc1cccc2c1CCN(C)C2 | 5.9 (≈ 2.4 µg/mL) |
| O=C(Nc1nc(-c2ccccn2)cs1)c1ccc(-c2ccc(F)cc2)s1 | 3.6 (≈ 1.37 µg/mL) |
| NCCCOc1cccc2c(-c3ccncc3)c(-c3cccc(NC(=O)Nc4ccccc4)c3)nn12 | 7.1 (≈ 3.4 µg/mL) |
| c1cc(COc2ccc(C3=NCCN3)cc2)nc(COc2ccc(C3=NCCN3)cc2)c1 | 6.1 (≈ 2.61 µg/mL) |
| Fc1cccc(-c2nc(NCC3COc4ccccc4O3)no2)c1F (stereo not drawn) | 9.2 (≈ 3.18 µg/mL) |
| Cc1nnc(NCc2ccccc2)c2ccccc12 | 4.4 (≈ 1.1 µg/mL) |
| O=C(COc1ccc(Br)cc1)NNC(=O)c1cccs1 | 2.4 (≈ 0.853 µg/mL) |
| O=C(CSc1ccc(Cl)cc1)NNC(=O)c1ccncc1 | 8.1 (≈ 2.61 µg/mL) |
